According to US12447149B2, “Formulations of vimseltinib” (Deciphera Pharmaceuticals, LLC, priority 2023, dated 2025):

Experiments:
[1] = Static storage stability of crystalline dihydrate and anhydrous forms (XRPD, DSC, KF weekly for four weeks); format: physicochemical
Description: The stability of crystalline dihydrate and anhydrous forms of the compound represented by Formula (I) at varying relative humidity (RH) and temperature was investigated.
For example, the stability of crystalline dihydrate and anhydrous forms of the compound represented by Formula (I), as prepared according to Example 1 and Example 2, respectively, was studied under other conditions by placing aliquots of each form in static storage at conditions of 40° C./75% RH, 25° C./97% RH, 40° C./0% RH and 25° C./0% RH and analyzing the aliquots once weekly for four weeks using XRPD, DSC, and KF.

[2] = Particle size distribution (PSD) of crystalline dihydrate form and seeds, DMAC-water crystallization; format: physicochemical; settings: for particle size d10 of seeds / particle size d50 of seeds / particle size d90 of seeds: seeds used in DMAC-water crystallization
[3] = jet-milled seed batch, crystallization 1 at 60° C. with 7% seeds, crystallization 2 at 64° C. with 5% seeds
[4] = storage 25° C./0% RH, Week 4, listed as crystalline dihydrate form (having average crystal sizes of about 1 mm)
[5] = storage 40° C./0% RH, Week 4, listed as crystalline dihydrate form (having average crystal sizes of about 1 mm)
[6] = listed as seeds of a smaller size
[7] = crystallization outputs using seeds of a smaller size (about 1/3/5 μm)
[8] = crystallized with milled seeds of about 3/6/12 μm, seeding about 65° C., about 3% seeds, laboratory and production scale

Row | Structure (SMILES) | KF (%) ([1]; storage 25° C./0% RH, Week 1) | KF (%) ([1]; storage 25° C./0% RH, Week 2) | KF (%) ([1]; storage 25° C./0% RH, Week 3) | KF (%) ([1]; storage 25° C./0% RH, Week 4) | KF (%) ([1]; storage 25° C./97% RH, Week 1) | KF (%) ([1]; storage 25° C./97% RH, Week 2) | KF (%) ([1]; storage 25° C./97% RH, Week 3) | KF (%) ([1]; storage 25° C./97% RH, Week 4) | KF (%) ([1]; storage 40° C./0% RH, Week 1) | XRPD ([1]; storage 40° C./0% RH, Week 1) | KF (%) ([1]; storage 40° C./0% RH, Week 2) | KF (%) ([1]; storage 40° C./0% RH, Week 3) | KF (%) ([1]; storage 40° C./0% RH, Week 4) | KF (%) ([1]; storage 40° C./75% RH, Week 1) | KF (%) ([1]; storage 40° C./75% RH, Week 2) | KF (%) ([1]; storage 40° C./75% RH, Week 3) | KF (%) ([1]; storage 40° C./75% RH, Week 4) | Particle Size d10 [2, 3] [microns] | Particle Size d50 [2, 3] [microns] | Particle Size d90 [2, 3] [microns] | other results
1 | Cc1nc(-c2cnc(NC(C)C)n(C)c2=O)ccc1Oc1ccnc(-c2cnn(C)c2)c1 | 0.1 | 0.1 | 0.0 | 0.2 | 0.3 | 0.3 | 0.2 | 0.4 | 0.1 | Anhydrous | 0.0 | 0.0 | 0.2 | 0.3 | 0.2 | 0.1 | 0.3 | – | – | – | XRPD ([1]; storage 25° C./0% RH, Week 1): Anhydrous; XRPD ([1]; storage 25° C./0% RH, Week 2): Anhydrous; XRPD ([1]; storage 25° C./0% RH, Week 3): Anhydrous; XRPD ([1]; storage 25° C./0% RH, Week 4): Anhydrous; XRPD ([1]; storage 25° C./97% RH, Week 1): Anhydrous; XRPD ([1]; storage 25° C./97% RH, Week 2): Anhydrous; XRPD ([1]; storage 25° C./97% RH, Week 3): Anhydrous; XRPD ([1]; storage 25° C./97% RH, Week 4): Anhydrous; XRPD ([1]; storage 40° C./0% RH, Week 2): Anhydrous; XRPD ([1]; storage 40° C./0% RH, Week 3): Anhydrous; XRPD ([1]; storage 40° C./0% RH, Week 4): Anhydrous; XRPD ([1]; storage 40° C./75% RH, Week 1): Anhydrous; XRPD ([1]; storage 40° C./75% RH, Week 2): Anhydrous; XRPD ([1]; storage 40° C./75% RH, Week 3): Anhydrous; XRPD ([1]; storage 40° C./75% RH, Week 4): Anhydrous
2 | Cc1nc(-c2cnc(NC(C)C)n(C)c2=O)ccc1Oc1ccnc(-c2cnn(C)c2)c1.O.O [Crystalline dihydrate form of the compound represented by Fo] [listing 1 of 2 here] | – | – | – | – | – | – | – | – | – | – | – | – | – | – | – | – | – | 3.6 | 8.4 | 16.2 | –
3 | Cc1nc(-c2cnc(NC(C)C)n(C)c2=O)ccc1Oc1ccnc(-c2cnn(C)c2)c1.O.O [Crystalline dihydrate form of the compound represented by Fo] [listing 2 of 2 here] | – | – | – | – | – | – | – | – | – | – | – | – | – | – | – | – | – | 3.9 | 8.5 | 16.0 | –
4 | Cc1nc(-c2cnc(NC(C)C)n(C)c2=O)ccc1Oc1ccnc(-c2cnn(C)c2)c1.O.O [Dihydrate form of the compound represented by Formula (I) (h] [listing 1 of 2 here] | 7.7 | 7.6 | 7.2 | 5.8 | 7.7 | 7.7 | 7.4 | 7.7 | 0.8 | – | 0.3 | 0.1 | 0.2 | 7.7 | 7.6 | 7.7 | 7.7 | – | – | – | XRPD ([1]; storage 25° C./0% RH, Week 1): Dihydrate; XRPD ([1]; storage 25° C./0% RH, Week 2): Dihydrate; XRPD ([1]; storage 25° C./0% RH, Week 3): Dihydrate; KF (%) [1, 4]: 5.8%; XRPD [1, 4]: partially converted to the crystalline anhydrous form; XRPD ([1]; storage 25° C./97% RH, Week 1): Dihydrate; XRPD ([1]; storage 25° C./97% RH, Week 2): Dihydrate; XRPD ([1]; storage 25° C./97% RH, Week 3): Dihydrate; XRPD ([1]; storage 25° C./97% RH, Week 4): Dihydrate; XRPD ([1]; storage 25° C./97% RH, Week 4, listed as crystalline dihydrate form (having average crystal sizes of about 1 mm)): remained stable and unchanged; XRPD ([1]; storage 40° C./0% RH, Week 3): Anhydrous; KF (%) [1, 5]: 0.2%; XRPD [1, 5]: partially converted to the crystalline anhydrous form; XRPD ([1]; storage 40° C./75% RH, Week 1): Dihydrate; XRPD ([1]; storage 40° C./75% RH, Week 2): Dihydrate; XRPD ([1]; storage 40° C./75% RH, Week 3): Dihydrate; XRPD ([1]; storage 40° C./75% RH, Week 4): Dihydrate; XRPD ([1]; storage 40° C./75% RH, Week 4, listed as crystalline dihydrate form (having average crystal sizes of about 1 mm)): remained stable and unchanged
5 | Cc1nc(-c2cnc(NC(C)C)n(C)c2=O)ccc1Oc1ccnc(-c2cnn(C)c2)c1.O.O [Dihydrate form of the compound represented by Formula (I) (h] [listing 2 of 2 here] | 7.5 | 7.7 | 8.1 | 7.9 | 7.6 | 7.5 | 7.9 | 7.9 | 7.5 | Pattern 4 | 7.4 | 7.0 | 3.4 | 7.5 | 7.9 | 8.0 | 7.9 | – | – | – | XRPD ([1]; storage 25° C./0% RH, Week 4): Dihydrate; XRPD ([1]; storage 40° C./0% RH, Week 1, listed as crystalline dihydrate form (having crystal sizes in the range of about 10-50 μm)): Pattern 4; XRPD ([1]; storage 40° C./0% RH, Week 2): Pattern 4; XRPD ([1]; storage 40° C./0% RH, Week 2, listed as crystalline dihydrate form (having crystal sizes in the range of about 10-50 μm)): Pattern 4; XRPD ([1]; storage 40° C./0% RH, Week 3, listed as crystalline dihydrate form (having crystal sizes in the range of about 10-50 μm)): Pattern 4 and peaks at 9.9° and 10.6°; XRPD ([1]; storage 40° C./0% RH, Week 4, listed as crystalline dihydrate form (having crystal sizes in the range of about 10-50 μm)): Pattern 4 and peaks at 9.9° and 10.6°
6 | Cc1nc(-c2cnc(NC(C)C)n(C)c2=O)ccc1Oc1ccnc(-c2cnn(C)c2)c1.O.O [Seed batch] | – | – | – | – | – | – | – | – | – | – | – | – | – | – | – | – | – | 1.4 | 2.7 | 5.0 | particle size d10 of seeds [2, 6]: about 1 μm; particle size d50 of seeds [2, 6]: about 3 μm; particle size d90 of seeds [2, 6]: about 5 μm
7 | Cc1nc(-c2cnc(NC(C)C)n(C)c2=O)ccc1Oc1ccnc(-c2cnn(C)c2)c1.O.O [crystalline dihydrate form ground in a mortar and pestle] | – | – | – | – | – | – | – | – | – | Pattern 4 and the crystalline anhydrous form were observed | – | – | – | – | – | – | – | – | – | – | –
8 | Cc1nc(-c2cnc(NC(C)C)n(C)c2=O)ccc1Oc1ccnc(-c2cnn(C)c2)c1.O.O [milled seeds] | – | – | – | – | – | – | – | – | – | – | – | – | – | – | – | – | – | – | – | – | particle size d10 of seeds [2]: about 3 μm; particle size d50 of seeds [2]: about 6 μm; particle size d90 of seeds [2]: about 12 μm
9 | Cc1nc(-c2cnc(NC(C)C)n(C)c2=O)ccc1Oc1ccnc(-c2cnn(C)c2)c1.O.O [non-milled batch of crystalline dihydrate form of the compou] | – | – | – | – | – | – | – | – | – | – | – | – | – | – | – | – | – | – | – | – | particle size d10 of seeds [2]: about 5 μm; particle size d50 of seeds [2]: about 15 μm; particle size d90 of seeds [2]: about 36 μm
10 | Cc1nc(-c2cnc(NC(C)C)n(C)c2=O)ccc1Oc1ccnc(-c2cnn(C)c2)c1 [vimseltinib] | – | – | – | – | – | – | – | – | – | – | – | – | – | – | – | – | – | – | – | – | Particle Size d10 [2, 7]: about 4 μm; Particle Size d50 [2, 7]: about 8 μm; Particle Size d90 [2, 7]: about 16 μm; Particle Size d10 [2, 8]: 6-8 μm; Particle Size d50 [2, 8]: 16-22 μm; Particle Size d90 [2, 8]: 33-40 μm
